Measured values: US20260137736A1, “PROBIOTIC LACTOBACILLUS STRAIN COMPOSITIONS AND APPLICATIONS THEREFOR INCLUDING FOR LEAKY GUT AND INFLAMMATION” (priority 2021, published 2026)

How the values were obtained:
[1] = test system: L. reuteri growth; experiment: Antimicrobial susceptibility profiling, broth microdilution MIC against clinically relevant antibiotics (EFSA cut offs); format: cell-based; parameters: unit not given here; conditions: for Minimum inhibitory concentration (MIC), L. reuteri PTA-126787: strain L. reuteri PTA-126787, two biological replicates; for Minimum inhibitory concentration (MIC), L. reuteri PTA-126788: strain L. reuteri PTA-126788, two biological replicates
Procedure: Antimicrobial susceptibility testing was performed using broth microdilution method, using LSB medium (Mueller Hinton broth containing 5% horse blood) following Clinical and Laboratory Standards Institute (CLSI, 28th edition) guidelines. Two-fold dilutions of the clinically relevant antibiotics (Clindamycin, Chloramphenicol, Erythromycin, Gentamicin, Kanamycin, Streptomycin, Tetracycline and Ampicillin, all purchased from Sigma Aldrich) were prepared in LSB medium. Approximately, 50 μL of 1×10^5 CFUs/mL of the L. reuteri cells were added into each well. “No antibiotic” and “medium” alone controls were included. […], Pseudomonas aeruginosa ATCC 27853, Staphylococcus aureus ATCC 29213, Enterococcus faecalis ATCC 29212, Streptococcus pneumonia ATCC 49619 and Lacticaseibacillus paracasei ATCC 334 were used as quality control organisms. The plates were incubated for 24-48 hours under microaerophilic conditions. […] The strains were classified as susceptible or resistant using the microbiological cut offs established by EFSA (35).

[2] = test system: L. reuteri growth; conditions: EFSA guideline species cut-off for L. reuteri; cited from earlier work

Row | Compound | Minimum inhibitory concentration (MIC), L. reuteri PTA-126787 [1] | Minimum inhibitory concentration (MIC), L. reuteri PTA-126788 [1] | EFSA microbiological cut off values for L. reuteri [2]
1 | [H]/N=C(/N)N[C@H]1[C@H](O)[C@@H](O)[C@H](O[C@@H]2O[C@@H](C)[C@](O)(C=O)[C@H]2O[C@@H]2O[C@@H](CO)[C@H](O)[C@@H](O)[C@@H]2NC)[C@@H](N/C(N)=N\[H])[C@@H]1O [Streptomycin] | 8 | 8 | 64
2 | CC1(C)S[C@@H]2[C@H](NC(=O)[C@H](N)c3ccccc3)C(=O)N2[C@H]1C(=O)O [Ampicillin] | 1 | 1 | 2
3 | CC[C@H]1OC(=O)[C@H](C)[C@@H](O[C@H]2C[C@@](C)(OC)[C@@H](O)[C@H](C)O2)[C@H](C)[C@@H](O[C@@H]2O[C@H](C)C[C@H](N(C)C)[C@H]2O)[C@](C)(O)C[C@@H](C)C(=O)[C@H](C)[C@@H](O)[C@]1(C)O [Erythromycin] | 0.12 | 0.12 | 1
4 | CN(C)[C@@H]1C(O)=C(C(N)=O)C(=O)[C@@]2(O)C(O)=C3C(=O)c4c(O)cccc4[C@@](C)(O)[C@H]3C[C@@H]12 [Tetracycline] | 32/64 | 32/64 | –
5 | O=C(N[C@H](CO)[C@H](O)c1ccc([N+](=O)[O-])cc1)C(Cl)Cl [Chloramphenicol] | 2 | 2 | 4
6 | NC[C@H]1O[C@H](O[C@H]2[C@H](O)[C@@H](O[C@H]3O[C@H](CO)[C@@H](O)[C@H](N)[C@H]3O)[C@H](N)C[C@@H]2N)[C@H](O)[C@@H](O)[C@@H]1O [Kanamycin] | 16 | 16 | –
7 | Gentamicin | 1 | 1 | 8
8 | CCC[C@@H]1C[C@@H](C(=O)N[C@@H]([C@H]2O[C@H](SC)[C@H](O)[C@@H](O)[C@H]2O)[C@H](C)Cl)N(C)C1 [Clindamycin] | ≥0.06 | ≥0.06 | –
